Results: article PMC8000724, “Trans-Epithelial Transport, Metabolism, and Biological Activity Assessment of the Multi-Target Lupin Peptide [sequence] (P5) and Its Metabolite [sequence] (P5-Met)” (Nutrients, 2021)
No end group written: not given here.

Tests used:
[1] = biological target: T1, HMGCoAR (catalytic domain) (Homo sapiens, UniProt P04035); assay: HMGCoAR activity assay; assay type: biochemical
T1 construct: finally the HMGCoAR (catalytic domain) (2 µL); purchased Sigma-Aldrich
T1 sequence (P04035 340-888 limits assumed): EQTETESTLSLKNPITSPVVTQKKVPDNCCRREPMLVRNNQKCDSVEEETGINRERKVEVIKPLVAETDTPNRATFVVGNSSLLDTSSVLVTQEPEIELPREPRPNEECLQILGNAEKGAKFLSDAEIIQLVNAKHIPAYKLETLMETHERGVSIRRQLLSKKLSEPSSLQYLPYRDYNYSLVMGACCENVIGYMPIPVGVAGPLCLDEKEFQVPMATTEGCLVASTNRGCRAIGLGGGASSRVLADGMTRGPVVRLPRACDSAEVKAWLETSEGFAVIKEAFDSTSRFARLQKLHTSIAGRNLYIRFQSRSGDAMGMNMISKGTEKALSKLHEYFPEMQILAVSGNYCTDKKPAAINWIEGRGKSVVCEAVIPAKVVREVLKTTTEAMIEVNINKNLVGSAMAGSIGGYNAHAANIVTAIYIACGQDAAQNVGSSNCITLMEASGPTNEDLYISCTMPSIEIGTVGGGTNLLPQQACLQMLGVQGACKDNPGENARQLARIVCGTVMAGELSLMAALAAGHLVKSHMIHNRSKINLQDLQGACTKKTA
Method: The experiments were carried out following the manufacturer instructions and optimized protocol. The assay buffer, NADPH, substrate solution, and HMGCoAR were provided in the HMGCoAR Assay Kit (Sigma Aldrich SRL, Milan, Italy). The experiments were carried out following the manufacturer instructions at 37 °C. In particular, each reaction (200 µL) was prepared adding the reagents in the following order: 1× assay buffer, a 10–500 µM doses of P5 and P5-met or vehicle (C), the NADPH (4 µL), the substrate solution (12 µL), and finally the HMGCoAR (catalytic domain) (2 µL). Subsequently, the samples were mixed and the absorbance at 340 nm read by the microplate reader Synergy H1 (Winooski, VT, USA) at time 0 and 10 min. The HMGCoAR-dependent oxidation of NADPH and the inhibition properties of peptides were measured by absorbance reduction, which is directly proportional to enzyme activity.

[2] = tested on: differentiated Caco-2 cells (AP membrane peptidases); assay: Metabolites of P5 produced by Caco-2 cell peptidases, MS analysis of AP solutions; assay type: in vitro ADME, human; set-up: key to Metabolite of P5 identified in the AP compartment: Mixture / Metabolite of P5 identified in the AP compartment: Alone: x, detected; n.d., not detected; conditions: P5 incubated in mixture with P3 and P7 (500 μM each), Caco-2, end of incubation 120 min
Method: (§1) Prior to experiments, the cell monolayer integrity and differentiation were checked by TEER measurement as described in detail above. Peptide trans-epithelial passage was assayed in differentiated Caco-2 cells in transport buffer solution (137 mM NaCl, 5.36 mM KCl, 1.26 mM CaCl2, and 1.1 mM MgCl2, 5.5 mM glucose) according to previously described conditions. In order to reproduce the pH conditions existing in vivo in the small intestinal mucosa, the apical (AP) solutions were maintained at pH 6.0 (buffered with 10 mM morpholinoethane sulfonic acid), and the basolateral (BL)solutions were maintained at pH 7.4 (buffered with 10 mM […]). Prior to transport experiments, cells were washed twice with 500 µL PBS containing Ca^++ and Mg^++. Peptide transportation by mature Caco-2 cells was assayed by loading the AP compartment with P5 alone, in mixture with […] (P3) and […] (P7), and/or P5-met (500 μM) in the AP transport solution (500 µL) and the BL compartment with the BL transport solution (700 µL). The plates were incubated at 37 °C and the BL solutions were collected at different time points (i.e., 15, 30, 60, 90, and 120 min) and replaced with fresh solutions pre-warmed at 37 °C. All BL and AP solutions collected at the end of the transport experiment were stored at −80 °C prior to analysis. Three independent transport experiments were performed, each in duplicate. In order to assess the involvement of transcytotic process in peptides passage, parallel transport experiments were performed in the presence of 500 nM wortmannin in both the AP and BL compartment, over 60 min incubation time.
The medium collected at the end of transport experiments from AP and BL chambers (500 µL and 700 µL, respectively) were freeze-dried and residues were solubilized in HPLC water (100 µL). Samples were desalted with C18 resin ZipTip by using 80% ACN, 0.1% FA as eluent (Millipore Corporation, Bedford, MA, USA). Each sample was lyophilized under speed-vacuum for 5 h at 30°C and re-dissolved in 50 μL (0.1% formic acid), before MS analysis. Purified BL samples were analyzed on a SL IT mass spectrometer interfaced with a HPLC- Chip Cube source (Agilent Technologies, Palo Alto, CA, USA). Data were processed with MSD Trap control 4.2, and Data analysis 4.2 version (Agilent Technologies, Palo Alto, CA, USA). The chromatographic separation was performed using a 1200 HPLC system equipped with a binary pump. […] Specifically, The monitored MRM transitions of P5-met were from the mono-charged precursor ion [M^+H]^+ (m/z 882.43) to product-ions m/z 678.3 and 407.1, respectively. […]

[3] = tested on: differentiated Caco-2 cells; assay: Trans-epithelial transport across differentiated Caco-2 cell monolayer; assay type: in vitro ADME, human
Method: Human intestinal Caco-2 cells, obtained from INSERM (Paris, France), where cultured according to a published protocol. For differentiation, they were seeded on polycarbonate filters, 12 mm diameter, 0.4 µm pore diameter (Transwell, Corning Inc., Lowell, MA, US) at a 3.5 × 10^5 cells/cm^2 density in complete medium supplemented with 10% FBS in both AP and BL compartments for 2 d to allow the formation of a confluent cell monolayer. Starting from day three after seeding, cells were transferred to FBS-free medium in both compartments, supplemented with ITS (final concentration 10 mg/L insulin (I), 5.5 mg/L transferrin (T), 6.7 μg/L sodium selenite (S); GIBCO-Invitrogen, San Giuliano Milanese, Italy) only in the basolateral (BL) compartment, and allowed to differentiate for 18–21 days with regular medium changes three times weekly.
The transepithelial electrical resistance (TEER) of differentiated Caco-2 cells was measured at 37 °C using the voltmeter apparatus Millicell (Millipore Co., Billerica, MA, USA), immediately before and at the end of the transport experiments. In addition, at the end of transport experiments, cells were incubated from the AP side with 1 mM phenol-red in PBS containing Ca^++ (0.9 mM) and Mg^++ (0.5 mM) for 1 h at 37 °C, to monitor the paracellular permeability of the cell monolayer. The BL solutions were then collected and NaOH (70 µL, 0.1 N) was added before reading the absorbance at 560 nm by a microplate reader Synergy H1 from Biotek (Winooski, VT, USA). Phenol-red passage was quantified using a standard phenol-red curve. Only filters showing TEER values and phenol red passages similar to untreated control cells were considered for peptide transport analysis.
as §1
The medium collected at the end of transport experiments from AP and BL chambers (500 µL and 700 µL, respectively) were freeze-dried and residues were solubilized in HPLC water (100 µL). Samples were desalted with C18 resin ZipTip by using 80% ACN, 0.1% FA as eluent (Millipore Corporation, Bedford, MA, USA). Each sample was lyophilized under speed-vacuum for 5 h at 30°C and re-dissolved in 50 μL (0.1% formic acid), before MS analysis. Purified BL samples were analyzed on a SL IT mass spectrometer interfaced with a HPLC- Chip Cube source (Agilent Technologies, Palo Alto, CA, USA). […]

For `CC[C@H](C)C(=O)O[C@H]1C[C@H](O)C=C2C=C[C@H](C)[C@H](CC[C@@H](O)C[C@@H](O)CC(=O)O)[C@H]21` [pravastatin, reference compound], the “Reduction of HMGCoAR enzyme activity” value ([1]; 1.0 µM, positive control) was 82.0%.
“ILPKHSDAD [Peptide P5-frag, minor metabolite of P5, loss of the N-terminal leucine]” was tested, and the “Metabolite of P5 identified in the AP compartment: Mixture” value [2] was “x”.
With LILPKHSDAD [Peptide P5] the IC50 ([1]; 10-500 µM peptide, 37 °C, NADPH absorbance 340 nm at 0 and 10 min) was 147 µM, the “Effect of the transcytosis inhibitor wortmannin on transport across Caco-2 cells” value ([3]; 500 nM wortmannin in AP and BL compartments, 60 min, HPLC-Chip MS of BL compartment) was “significantly impairs the transport” and the “Amount in BL compartment, mixture versus alone” value ([3]; Caco-2 AP to BL, 2 h, 500 μM) was “about 3.5 fold”. For the same molecule, the “Transport rate across Caco-2 monolayer” value ([3]; in mixture with other lupin peptides (P3, P7), Caco-2 AP to BL, 500 μM) was 8.9 ± 0.4 ng/(mL × min), the “Amount in the BL compartment at the end of incubation (2 h)” value (from here on “Amount in the BL compartment at the end”) ([3]; tested alone, 500 μM in AP, Caco-2 AP to BL, 2 h, conversion of the μg value) was 0.271 nmol and the “Amount in the BL compartment at the end” value ([3]; tested alone, 500 μM in AP, Caco-2 AP to BL, AP pH 6.0 / BL pH 7.4, 37 °C, 2 h, HPLC-Chip MS, mean ± SD) was 0.3 ± 0.02 µg. For the same molecule, the “Amount in the BL compartment after 60 min” value ([3]; tested alone, 500 μM in AP, Caco-2 AP to BL, AP pH 6.0 / BL pH 7.4, 37 °C, HPLC-Chip MS, mean ± SD) was 0.20 ± 0.02 µg, the “Transport rate across Caco-2 monolayer” value ([3]; tested alone, Caco-2 AP to BL, 500 μM) was 1.8 ± 0.3 ng/(mL × min) and the “Amount in the BL compartment at the end” value ([3]; tested in mixture with P3 and P7, each 500 μM in AP, Caco-2 AP to BL, 2 h, conversion of the μg value) was 0.99 nmol. The “Amount in the BL compartment at the end” value ([3]; tested in mixture with P3 and P7, each 500 μM in AP, Caco-2 AP to BL, AP pH 6.0 / BL pH 7.4, 37 °C, 2 h, HPLC-Chip MS, mean ± SD) was 1.1 ± 0.2 µg.
